Test in all cases: MTT assay
What all share (assay type): cell-based, human
A general note: Tetrazolium dyes change colour on reduction, which living cells bring about.

Assay [1] deals with HepG2 (Liver). The settings on record: HepG2, 48 h; NA stands for Not Active. As for the experimental part:
(§1) Human cancer cell lines HepG2 (Liver), SK-MEL-1 (Skin), HT 018 (Colon), HeLa (Cervical), and MDA-MB 231 (Breast) were procured from the American Type Culture Collection (Rockville, MD, USA). MDA-MB-231 and HepG2 cell lines were maintained in DMEM; whereas SK-MEL-1, HeLa, and HT-018 were maintained in RPMI medium. The complete growth medium was supplemented with 10% (v/v) heat-inactivated FCS, 2 mM L-glutamine, and antimycotic-antibiotic solution. All of the cells were maintained in a standard culture condition of 37 °C temperature and 95% humidified atmosphere containing 5% CO2. Cells were screened periodically for mycoplasma contamination.
(§2) The novel complexes 1 and 2 were examined for their cytotoxicity against five different types of cancer cell lines viz., HepG2, SK-MEL-1, HT 018, HeLa, and MDA-MB 231 using a standard MTT reduction assay, according to Khan et al. (2012). Briefly, cells at a concentration of 1 × 10^6 cells/[…]/well were plated in 96-well plates and further grown in their respective medium containing 10% FCS. After 24 h, cells were incubated with 0–25 μM concentrations of test complexes or respective free ligands. Cells with 0.1% DMSO (vehicle control) and cisplatin (positive control) were also cultured under the same conditions. Cells only were used as negative control. Ensuing 48 h of incubation, old medium from treated cells was replaced with fresh medium. MTT reagent (5 mg/mL in PBS) was added to each well, and cells were further incubated for 2–3 h at 37 °C. After treatment, the supernatants were carefully removed, and 100 μL of DMSO was added to each well. Absorbance was measured at 620 nm in a multi-well plate reader, and drug sensitivity was expressed in terms of the concentration of drug required for a 50% reduction of cell viability (IC50).

Assay [2] relates to MDA-MB 231 (Breast). The settings on record: MDA-MB 231, 48 h; NA stands for Not Active. As for the experimental part: as §1, §2
The test system of assay [3] is HeLa (Cervical). To be noted: 48 h, NA stands for Not Active. As for the experimental part: as §1, §2
The test system of assay [4] is HT018 (Colon). To be noted: HT018, 48 h; NA stands for Not Active. As for the experimental part: as §1, §2
Assay [5] relates to SK-MEL-1 (Skin). To be noted: SK-MEL-1, 48 h; NA stands for Not Active. As for the experimental part: as §1, §2

The source of these data is publication PMC5983663, “Design, Synthesis, and Biological Evaluation of Benzimidazole-Derived Biocompatible Copper(II) and Zinc(II) Complexes as Anticancer Chemotherapeutics” (International Journal of Molecular Sciences, 2018).

The term IC50 denotes the midpoint of a concentration-inhibition curve. Lower therefore signals greater potency in that assay. As to `N.N.[Cl][Pt][Cl]` [Cisplatin, cisplatin, reference compound], the half-maximal inhibitory concentration (IC50) in assay [1] is 6 ± 0.4 µM; in assay [2], 3.1 ± 0.2 µM; in assay [3] it was 6 ± 0.6 µM; in assay [4], 5.7 ± 0.2 µM; in assay [5] it was 5.6 ± 0.8 µM.
